The text below walks through data of ChEMBL document CHEMBL5678818, “Discovery of potent SOS1 inhibitors that block RAS activation via disruption of the RAS-SOS1 interaction” (Proc Natl Acad Sci U S A, 2019).

In assay [1] the target is GTPase KRas (Homo sapiens, UniProt P01116, G12C). In words: Inhibition of N-terminal GST-tagged recombinant human KRAS G12C mutant (1 to 169 residues) expressed in Escherichia coli assessed as reduction in intrinsic GTP exchange preincubated for 10 mins with KRAS followed by SOS1 addition measured after 30 mins in presence of EDA-GTP-DY-647P1 by HTRF analysis. (TR-FRET usually uses a lanthanide donor and a delayed reading to cut background.)

Assay [2] concerns the target T1, Cyclin-dependent kinase-like 5 (Homo sapiens) (UniProt O76039).
T1 sequence (whole entry): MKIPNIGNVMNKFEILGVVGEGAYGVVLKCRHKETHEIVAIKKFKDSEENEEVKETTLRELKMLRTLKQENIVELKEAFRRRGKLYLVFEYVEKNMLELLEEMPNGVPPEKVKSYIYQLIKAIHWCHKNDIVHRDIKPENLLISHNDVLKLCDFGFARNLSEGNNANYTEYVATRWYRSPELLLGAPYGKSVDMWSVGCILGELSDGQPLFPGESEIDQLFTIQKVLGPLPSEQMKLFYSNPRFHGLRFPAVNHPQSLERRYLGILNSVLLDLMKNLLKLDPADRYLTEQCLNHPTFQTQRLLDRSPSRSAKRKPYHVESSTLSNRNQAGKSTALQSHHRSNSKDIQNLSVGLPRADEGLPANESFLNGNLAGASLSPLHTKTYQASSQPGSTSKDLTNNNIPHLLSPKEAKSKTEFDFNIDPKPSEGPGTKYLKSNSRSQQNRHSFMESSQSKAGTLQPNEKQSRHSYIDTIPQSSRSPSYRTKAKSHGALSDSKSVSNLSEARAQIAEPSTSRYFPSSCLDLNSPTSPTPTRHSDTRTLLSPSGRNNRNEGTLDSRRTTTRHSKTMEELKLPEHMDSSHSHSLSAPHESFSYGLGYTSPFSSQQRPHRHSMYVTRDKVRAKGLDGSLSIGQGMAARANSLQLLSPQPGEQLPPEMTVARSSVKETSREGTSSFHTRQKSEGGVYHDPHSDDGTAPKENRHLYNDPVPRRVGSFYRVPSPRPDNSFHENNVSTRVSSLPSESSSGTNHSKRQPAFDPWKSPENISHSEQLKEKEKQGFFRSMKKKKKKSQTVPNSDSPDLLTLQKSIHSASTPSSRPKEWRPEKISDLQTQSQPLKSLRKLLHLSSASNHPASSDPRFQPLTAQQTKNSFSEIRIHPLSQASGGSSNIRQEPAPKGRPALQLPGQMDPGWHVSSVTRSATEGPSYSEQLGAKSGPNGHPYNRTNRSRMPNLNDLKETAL
In words: Inhibition of CDKL5 (unknown origin) assessed as residual activity at 1000 nM by KINOMEscan analysis relative to control.

Assay [3] has as its target Dual specificity protein kinase CLK1 (Homo sapiens) (UniProt P49759). In words: Inhibition of CLK1 (unknown origin) assessed as residual activity at 1000 nM by KINOMEscan analysis relative to control.
For assay [4], the species on record is Homo sapiens. In words: Inhibition of JNK1 (unknown origin) assessed as residual activity at 1000 nM by KINOMEscan analysis relative to control.
Assay [5] deals with Phosphatidylinositol 4,5-bisphosphate 3-kinase catalytic subunit alpha isoform (Homo sapiens), P42336 [E545A]. In words: Inhibition of PIK3CA E545A mutant (unknown origin) assessed as residual activity at 1000 nM by KINOMEscan analysis relative to control.
Assay [6] has as its target T2, Phosphatidylinositol 4,5-bisphosphate 3-kinase catalytic subunit delta isoform (Homo sapiens) (UniProt O00329).
T2 sequence (whole entry): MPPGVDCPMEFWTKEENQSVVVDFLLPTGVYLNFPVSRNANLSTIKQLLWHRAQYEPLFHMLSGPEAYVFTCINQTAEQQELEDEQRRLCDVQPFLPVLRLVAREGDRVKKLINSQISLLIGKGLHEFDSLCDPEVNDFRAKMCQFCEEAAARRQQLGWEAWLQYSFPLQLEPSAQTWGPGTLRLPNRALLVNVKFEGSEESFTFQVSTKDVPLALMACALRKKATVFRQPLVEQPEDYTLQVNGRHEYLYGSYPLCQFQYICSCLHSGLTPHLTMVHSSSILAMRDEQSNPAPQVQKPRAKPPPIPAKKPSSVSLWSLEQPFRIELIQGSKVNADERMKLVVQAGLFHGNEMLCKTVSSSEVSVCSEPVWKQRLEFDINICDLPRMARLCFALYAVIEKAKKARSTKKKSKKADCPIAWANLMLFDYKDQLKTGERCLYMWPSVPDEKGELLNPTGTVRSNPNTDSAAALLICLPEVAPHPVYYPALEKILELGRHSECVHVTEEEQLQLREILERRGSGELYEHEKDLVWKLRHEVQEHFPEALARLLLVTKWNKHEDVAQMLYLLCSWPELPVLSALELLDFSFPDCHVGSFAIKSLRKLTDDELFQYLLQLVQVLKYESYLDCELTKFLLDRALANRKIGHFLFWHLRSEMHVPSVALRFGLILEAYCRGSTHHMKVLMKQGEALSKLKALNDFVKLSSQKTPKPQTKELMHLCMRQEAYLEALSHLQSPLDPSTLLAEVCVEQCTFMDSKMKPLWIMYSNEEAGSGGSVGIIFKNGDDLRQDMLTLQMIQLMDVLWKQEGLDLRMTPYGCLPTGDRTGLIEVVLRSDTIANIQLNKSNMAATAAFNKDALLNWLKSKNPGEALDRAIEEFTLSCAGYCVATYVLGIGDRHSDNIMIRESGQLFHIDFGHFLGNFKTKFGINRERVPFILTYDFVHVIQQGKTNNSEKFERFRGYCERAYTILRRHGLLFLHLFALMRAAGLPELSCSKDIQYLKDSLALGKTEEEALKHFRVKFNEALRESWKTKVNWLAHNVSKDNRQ
In words: Inhibition of PIK3CD (unknown origin) assessed as residual activity at 1000 nM by KINOMEscan analysis relative to control.

Assay [7] concerns the target T3, Tyrosine-protein kinase TXK (Homo sapiens) (UniProt P42681).
T3 sequence (whole entry): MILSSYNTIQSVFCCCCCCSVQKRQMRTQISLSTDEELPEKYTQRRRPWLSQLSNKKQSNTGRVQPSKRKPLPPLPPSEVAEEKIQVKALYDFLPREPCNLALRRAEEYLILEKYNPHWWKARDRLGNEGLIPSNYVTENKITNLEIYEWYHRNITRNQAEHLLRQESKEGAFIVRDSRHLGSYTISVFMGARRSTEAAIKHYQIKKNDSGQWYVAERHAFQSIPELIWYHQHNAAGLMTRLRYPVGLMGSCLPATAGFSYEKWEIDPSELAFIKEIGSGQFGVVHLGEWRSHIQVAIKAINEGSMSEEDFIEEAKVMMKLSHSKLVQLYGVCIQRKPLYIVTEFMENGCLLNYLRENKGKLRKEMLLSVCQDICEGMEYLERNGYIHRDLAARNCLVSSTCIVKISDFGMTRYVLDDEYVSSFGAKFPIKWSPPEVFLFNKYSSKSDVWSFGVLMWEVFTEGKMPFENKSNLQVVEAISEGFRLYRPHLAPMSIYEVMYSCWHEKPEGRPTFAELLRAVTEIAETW
In words: Inhibition of TXK (unknown origin) assessed as residual activity at 1000 nM by KINOMEscan analysis relative to control.

As a reminder, the IC50 is the point on the concentration scale where inhibition reaches its midpoint. `COc1cc2nc(C)nc(NC(C)c3ccc(-c4cnc5n4CCC5)s3)c2cc1OC` (centres undefined): the IC50 in assay [1] is over 20 µM.

As for `COc1cc2nc(C)nc(N[C@H](C)c3cccc(-c4cn[nH]c4)c3)c2cc1OC`, the Activity in assay [2] came out at 82%; in assay [3] it was 70%; in assay [4], 64%; in assay [5] it was 66%; in assay [6], 96%; in assay [7] it was 83%.

With `COc1cc2ncnc(N[C@H](C)c3cccc4ccccc34)c2cc1OC`, the IC50 in assay [1] is over 20 µM. In addition, the Activity in assay [2] came out at 94%; in assay [3], 100%; in assay [4] it was 100%; in assay [5], 91%; in assay [6] it was 68%; in assay [7], 100%.
